Reference: patent US20230257364A1, “PYRIDAZINONE-BASED COMPOUNDS AS AXL, C-MET, AND MER INHIBITORS AND METHODS OF USE THEREOF” (CMG Pharmaceutical Co., Ltd., priority 2022, published 2023)

How the values were obtained:
Assay type in all cases: biochemical
[1] = target: T1, AXL (Homo sapiens, UniProt P30530); assay: Enzymatic kinase assay (ADP-GLO), AXL; details: 10 μM ATP, poly (Glu4, Tyr1) substrate, 60 min room temperature, luminescence
T1 sequence (P30530 26-894): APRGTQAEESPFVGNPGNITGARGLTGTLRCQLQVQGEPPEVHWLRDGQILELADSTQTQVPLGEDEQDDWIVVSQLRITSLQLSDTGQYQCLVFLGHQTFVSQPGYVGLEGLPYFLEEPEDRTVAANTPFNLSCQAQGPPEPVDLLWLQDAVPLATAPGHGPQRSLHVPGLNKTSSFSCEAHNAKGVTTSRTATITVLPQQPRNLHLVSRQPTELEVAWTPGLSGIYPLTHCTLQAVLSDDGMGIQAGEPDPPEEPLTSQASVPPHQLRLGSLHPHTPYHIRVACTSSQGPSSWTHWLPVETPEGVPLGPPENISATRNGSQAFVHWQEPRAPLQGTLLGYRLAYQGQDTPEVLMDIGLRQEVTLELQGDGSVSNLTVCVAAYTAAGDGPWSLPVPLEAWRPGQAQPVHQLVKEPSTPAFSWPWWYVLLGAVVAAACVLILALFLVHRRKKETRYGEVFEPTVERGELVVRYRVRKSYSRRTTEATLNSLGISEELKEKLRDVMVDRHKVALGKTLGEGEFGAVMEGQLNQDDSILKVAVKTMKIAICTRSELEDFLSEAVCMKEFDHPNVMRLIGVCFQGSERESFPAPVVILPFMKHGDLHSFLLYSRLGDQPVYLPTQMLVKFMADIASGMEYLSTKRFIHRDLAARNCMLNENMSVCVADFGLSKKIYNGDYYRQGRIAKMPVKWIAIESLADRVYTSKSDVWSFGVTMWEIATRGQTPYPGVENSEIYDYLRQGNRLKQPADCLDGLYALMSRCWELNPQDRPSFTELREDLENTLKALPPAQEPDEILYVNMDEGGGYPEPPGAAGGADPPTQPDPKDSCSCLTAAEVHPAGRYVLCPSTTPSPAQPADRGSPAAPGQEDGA
Experimental: (§1) This example illustrates an enzymatic assay to determine the inhibitory activity of exemplary compounds of Formula (I) in an aspect of the invention.
(§2) All the kinase reactions were performed in 5 μL using tyrosine kinase buffer with 0.2 μg/μL poly (Glu4, Tyr1) substrate, 10 μM ATP, serial dilution of the inhibitor, and incubated at room temperature for 60 min. After the indicated incubation times, 5 μL ADP-GLO™ reagent (Promega, Madison, Wis.) was added to the reactions and the plate was incubated at room temperature for 40 min. Then, 10 μL of kinase detection reagent was added and after an incubation time of 40 min, luminescence was recorded and IC50 values were determined (Table 1). All 384-well assay plates were read using a GLOMAX™ Discover Microplate Luminometer from Promega (Madison, Wis.). To plot, analyze the data and calculate all kinase reaction biochemical values, both Microsoft Excel and Prism from GraphPad 7 Software (La Jolla, Calif.) were used.

[2] = target: T2, MER (Homo sapiens, UniProt Q12866); assay: Enzymatic kinase assay (ADP-GLO), MER; details: 10 μM ATP, poly (Glu4, Tyr1) substrate, 60 min room temperature, luminescence
T2 sequence (Q12866 21-999): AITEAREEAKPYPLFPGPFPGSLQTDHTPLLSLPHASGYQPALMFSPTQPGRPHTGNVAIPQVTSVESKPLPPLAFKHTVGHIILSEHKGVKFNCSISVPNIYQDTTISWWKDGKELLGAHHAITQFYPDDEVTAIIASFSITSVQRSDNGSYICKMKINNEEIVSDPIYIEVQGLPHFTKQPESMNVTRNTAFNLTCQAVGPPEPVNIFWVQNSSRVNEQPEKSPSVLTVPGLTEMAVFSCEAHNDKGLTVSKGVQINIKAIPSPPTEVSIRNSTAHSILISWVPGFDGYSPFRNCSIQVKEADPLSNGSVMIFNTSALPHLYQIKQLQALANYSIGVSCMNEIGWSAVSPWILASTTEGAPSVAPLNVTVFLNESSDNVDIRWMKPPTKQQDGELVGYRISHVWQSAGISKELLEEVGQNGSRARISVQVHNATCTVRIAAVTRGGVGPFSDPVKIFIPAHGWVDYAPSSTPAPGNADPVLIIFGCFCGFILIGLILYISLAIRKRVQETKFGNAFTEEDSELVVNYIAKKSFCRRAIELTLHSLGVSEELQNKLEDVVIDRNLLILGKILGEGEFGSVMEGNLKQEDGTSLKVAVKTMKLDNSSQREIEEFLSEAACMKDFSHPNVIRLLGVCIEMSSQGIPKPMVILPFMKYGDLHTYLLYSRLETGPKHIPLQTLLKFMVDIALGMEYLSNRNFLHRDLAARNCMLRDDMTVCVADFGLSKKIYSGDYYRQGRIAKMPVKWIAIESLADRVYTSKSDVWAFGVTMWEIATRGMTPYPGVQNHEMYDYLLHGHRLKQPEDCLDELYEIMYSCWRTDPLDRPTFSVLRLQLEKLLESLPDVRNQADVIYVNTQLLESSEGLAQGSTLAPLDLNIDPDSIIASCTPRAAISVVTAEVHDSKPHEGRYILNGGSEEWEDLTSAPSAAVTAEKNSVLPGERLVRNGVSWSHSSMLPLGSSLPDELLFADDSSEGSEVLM
Experimental: as §1, §2

[3] = target: C-MET (Homo sapiens, UniProt P08581); assay: Enzymatic kinase assay (ADP-GLO), C-MET; details: 10 μM ATP, poly (Glu4, Tyr1) substrate, 60 min room temperature, luminescence; read-out: Enzymatic assay IC50 (nM) C-MET
Sequence of C-MET (P08581 25-1390): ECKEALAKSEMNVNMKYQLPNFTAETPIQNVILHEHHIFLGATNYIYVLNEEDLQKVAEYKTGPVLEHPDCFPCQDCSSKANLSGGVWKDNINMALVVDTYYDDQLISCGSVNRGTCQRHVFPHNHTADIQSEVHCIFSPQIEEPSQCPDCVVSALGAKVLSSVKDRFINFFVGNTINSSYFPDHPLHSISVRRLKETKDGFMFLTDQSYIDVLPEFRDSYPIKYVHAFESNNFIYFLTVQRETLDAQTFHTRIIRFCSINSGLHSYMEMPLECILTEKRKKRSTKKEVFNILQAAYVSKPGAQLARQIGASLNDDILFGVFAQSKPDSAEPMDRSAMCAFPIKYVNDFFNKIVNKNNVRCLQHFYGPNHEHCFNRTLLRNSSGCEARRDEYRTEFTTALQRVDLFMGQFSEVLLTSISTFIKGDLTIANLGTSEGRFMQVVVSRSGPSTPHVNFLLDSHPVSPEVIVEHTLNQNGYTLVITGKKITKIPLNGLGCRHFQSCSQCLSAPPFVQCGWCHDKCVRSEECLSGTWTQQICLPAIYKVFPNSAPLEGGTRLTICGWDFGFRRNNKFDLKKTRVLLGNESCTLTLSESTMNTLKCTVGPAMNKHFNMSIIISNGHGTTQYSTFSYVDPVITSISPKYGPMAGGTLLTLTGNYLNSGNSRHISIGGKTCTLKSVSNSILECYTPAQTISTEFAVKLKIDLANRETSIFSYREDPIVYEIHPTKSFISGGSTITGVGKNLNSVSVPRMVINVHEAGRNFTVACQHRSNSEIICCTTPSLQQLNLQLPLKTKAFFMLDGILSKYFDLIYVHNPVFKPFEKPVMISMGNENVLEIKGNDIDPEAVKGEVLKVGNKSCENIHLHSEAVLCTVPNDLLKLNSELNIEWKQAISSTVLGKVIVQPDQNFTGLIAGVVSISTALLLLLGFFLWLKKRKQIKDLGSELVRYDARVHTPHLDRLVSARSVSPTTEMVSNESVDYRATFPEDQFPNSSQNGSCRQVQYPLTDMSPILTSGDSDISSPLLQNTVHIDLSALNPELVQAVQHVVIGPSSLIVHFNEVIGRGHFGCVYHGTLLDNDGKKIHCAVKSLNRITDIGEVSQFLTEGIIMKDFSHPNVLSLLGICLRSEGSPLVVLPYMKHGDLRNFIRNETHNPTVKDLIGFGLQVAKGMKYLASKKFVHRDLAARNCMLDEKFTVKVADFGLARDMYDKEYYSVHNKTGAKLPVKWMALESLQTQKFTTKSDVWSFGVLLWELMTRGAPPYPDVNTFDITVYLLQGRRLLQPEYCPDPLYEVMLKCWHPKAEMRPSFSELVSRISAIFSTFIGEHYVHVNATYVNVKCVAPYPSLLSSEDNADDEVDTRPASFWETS
Experimental: as §1
as §2, with “Then, 10 μL of kinase detection reagent was added and after an incubation time of 40 min, luminescence was recorded and IC50 values were determined (Table 1).” left out

IC50 [1] | IC50 [2] | IC50 [3] | Compound
< 1000 nM | < 100 nM | < 100 nM | Nc1nccc(Oc2ccc(NC(=O)c3ccnn(-c4ccc(F)cc4)c3=O)cc2F)c1/C=C/C(=O)N1CCOCC1 [Example 4, (E)-N-(4-(2-amino-3-(3-morpholino-3-oxoprop-1-enyl)pyridine-4-yloxy)-3-fluorophenyl)-2-(4-fluorophenyl)-3-oxo-2,3-dihydropyridazine-4-carboxamide]
< 1000 nM | < 1000 nM | < 1000 nM | Nc1nccc(Oc2ccc(NC(=O)c3ccnn(-c4ccc(F)cc4)c3=O)cc2F)c1/C=C/C(=O)N1CCNCC1 [Example 7, (E)-N-(4-(2-amino-3-(3-oxo-3-(piperazin-1-yl)prop-1-enyl)pyridin-4-yloxy)-3-fluorophenyl)-2-(4-fluorophenyl)-3-oxo-2,3-dihydropyridazine-4-carboxamide]
< 100 nM | < 1000 nM | < 1000 nM | Nc1nccc(Oc2ccc(NC(=O)c3ccnn(-c4ccc(F)cc4)c3=O)cc2F)c1C#CCCN1CCOCC1 [Example 8, N-(4-(2-amino-3-(4-morpholinobut-1-ynyl)pyridin-4-yloxy)-3-fluorophenyl)-2-(4-fluorophenyl)-3-oxo-2,3-dihydropyridazine-4-carboxamide]
< 10 nM | < 10 nM | < 10 nM | COCCN1CCN(C(=O)C#Cc2c(Oc3ccc(NC(=O)c4ccnn(-c5ccc(F)cc5)c4=O)cc3F)ccnc2N)CC1 [Example 14, N-(4-(2-amino-3-(3-(4-(2-methoxyethyl)piperazin-1-yl)-3-oxoprop-1-ynyl)pyridin-4-yloxy)-3-fluorophenyl)-2-(4-fluorophenyl)-3-oxo-2,3-dihydropyridazine-4-carboxamide]
< 100 nM | < 100 nM | < 100 nM | Nc1nccc(Oc2ccc(NC(=O)c3cccn(-c4ccc(F)cc4)c3=O)cc2F)c1C#CC(=O)N1CCNCC1 [Example 15, N-(4-(2-amino-3-(3-oxo-3-(piperazin-1-yl)prop-1-ynyl)pyridin-4-yloxy)-3-fluorophenyl)-1-(4-fluorophenyl)-2-oxo-1,2-dihydropyridine-3-carboxamide]

The remaining lines, values behind:

Compound | IC50 [1] | IC50 [2] | IC50 [3]
Nc1nccc(Oc2ccc(NC(=O)c3ccnn(-c4ccc(F)cc4)c3=O)cc2F)c1Cl [Example 1, N-(4-(2-amino-3-chloropyridin-4-yloxy)-3-fluorophenyl)-2-(4-fluorophenyl)-3-oxo-2,3-dihydropyridazine-4-carboxamide] | < 1000 nM | < 1000 nM | < 1000 nM
Nc1nccc(Oc2ccc(NC(=O)c3ccnn(-c4ccc(F)cc4)c3=O)cc2F)c1C#CC(=O)N1CCOCC1 [Example 2, N-(4-(2-amino-3-(3-morpholino-3-oxoprop-1-ynyl)pyridin-4-yloxy)-3-fluorophenyl)-2-(4-fluorophenyl)-3-oxo-2,3-dihydropyridazine-4-carboxamide] | < 100 nM | < 10 nM | < 1000 nM
Nc1nccc(Oc2ccc(NC(=O)c3ccnn(-c4ccc(F)cc4)c3=O)cc2F)c1C#CCN1CCOCC1 [Example 3, N-(4-(2-amino-3-(morpholinoprop-1-ynyl)pyridine-4-yloxy)-3-fluorophenyl)-2-(4-fluorophenyl)-3-oxo-2,3-dihydropyridazine-4-carboxamide] | < 1000 nM | < 1000 nM | < 1000 nM
N#Cc1c(Oc2ccc(NC(=O)c3ccnn(-c4ccc(F)cc4)c3=O)cc2F)ccnc1N [Example 5] | < 100 nM | < 1000 nM | < 10 nM
Nc1nccc(Oc2ccc(NC(=O)c3ccnn(-c4ccc(F)cc4)c3=O)cc2F)c1C#CCN1CCNCC1 [Example 6, N-(4-(2-amino-3-(3-(piperazin-1-yl)prop-1-ynyl)pyridin-4-yloxy)-3-fluorophenyl)-2-(4-fluorophenyl)-3-oxo-2,3-dihydropyridazine-4-carboxamide] | < 1000 nM | < 1000 nM | < 1000 nM
Nc1nccc(Oc2ccc(NC(=O)c3ccnn(-c4ccc(F)cc4)c3=O)cc2F)c1C#CC(=O)N1CCC(O)CC1 [Example 9, N-(4-(2-amino-3-(3-(4-hydroxypiperidin-1-yl)-3-oxoprop-1-ynyl)pyridin-4-yloxy)-3-fluorophenyl)-2-(4-fluorophenyl)-3-oxo-2,3-dihydropyridazine-4-carboxamide] | < 10 nM | < 100 nM | < 100 nM
COC1CCN(C(=O)C#Cc2c(Oc3ccc(NC(=O)c4ccnn(-c5ccc(F)cc5)c4=O)cc3F)ccnc2N)CC1 [Example 10, N-(4-(2-amino-3-(3-(4-methoxypiperidin-1-yl)-3-oxoprop-1-ynyl)pyridin-4-yloxy)-3-fluorophenyl)-2-(4-fluorophenyl)-3-oxo-2,3-dihydropyridazine-4-carboxamide] | < 100 nM | < 1000 nM | < 1000 nM
COCCONC(=O)C#Cc1c(Oc2ccc(NC(=O)c3ccnn(-c4ccc(F)cc4)c3=O)cc2F)ccnc1N [Example 11, N-(4-(2-amino-3-(3-(2-methoxyethoxyamino)-3-oxoprop-1-ynyl)pyridin-4-yloxy)-3-fluorophenyl)-2-(4-fluorophenyl)-3-oxo-2,3-dihydropyridazine-4-carboxamide] | < 100 nM | < 1000 nM | < 10 nM
COCCON(C)C(=O)C#Cc1c(Oc2ccc(NC(=O)c3ccnn(-c4ccc(F)cc4)c3=O)cc2F)ccnc1N [Example 12, N-(4-(2-amino-3-(3-((2-methoxyethoxy)(methyl)amino)-3-oxoprop-1-ynyl)pyridin-4-yloxy)-3-fluorophenyl)-2-(4-fluorophenyl)-3-oxo-2,3-dihydropyridazine-4-carboxamide] | < 100 nM | < 100 nM | < 100 nM
Nc1nccc(Oc2ccc(NC(=O)c3ccnn(-c4ccc(F)cc4)c3=O)cc2F)c1C#CC(=O)N1CCNCC1 [Example 13, N-(4-(2-amino-3-(3-oxo-3-(piperazin-1-yl)prop-1-ynyl)pyridin-4-yloxy)-3-fluorophenyl)-2-(4-fluorophenyl)-3-oxo-2,3-dihydropyridazine-4-carboxamide] | < 100 nM | < 100 nM | < 100 nM
